From patent publication US20160228444A1, “NUCLEOSIDE ANALOGS AND USES THEREOF” (Ramot at Tel-Aviv University Ltd., priority 2015, published 2016)
Read-outs that look alike come from different tables or passages of the source.

Tests used:
[1] = test system: U251 human glioblastoma xenograft; assay: Glioblastoma xenograft model (survival, body weight, tumor volume, tumor weight, Ki-67); settings: for tumor volume of vehicle-treated group relative to treated group: from day 11, FIG. 3C
Method: Xenograft of glioblastoma: 8- to 10-week-old male Hsd athymic FOXN (Harlan, Jerusalem, Israel) were inoculated sc in the flanks with 5×10^6 U251 cells. Tumor length (L) and width (W) were measured with a caliper twice weekly. Tumor volumes were calculated according to the formula: (L×W2)/2. When the tumor was established (volume of 50-100 mm^3) the mice were randomly divided into six groups treated with: vehicle control (saline); ip Dox 4 mg/kg once weekly; po AN446 25 mg/kg thrice a week; po AN7 50 mg/kg thrice a week; combination of AN446+Dox (4 mg/kg ip Dox once a week and 25 mg/kg po AN446 thrice a week); AN7+Dox (4 mg/kg ip Dox once a week and 50 mg/kg po AN7 thrice weekly). Untreated, non-bearing tumor naive mice were maintained under the same conditions. The experiment was terminated after 25 treatment days, the mice were sacrificed under CO2 and their tumors and hearts were removed, weighed and divided into parts dedicated for immunohistochemistry (IHC) and the rest were frozen (−80° C.) for Western blot and Quantitative PCR (qRT-PCR) analyses.
Inactivation of avidin-biotin nonspecific binding was prevented by a blocking kit, according to the manufacturer's protocol (Vector Laboratories). […] The secondary antibody was biotin conjugated goat anti-rabbit or anti-mouse IgG. Slides were then stained with the ABC peroxidase system, developed with diaminobenzidine (DAB) (Vector Laboratories) and counterstained with hematoxylin (Bio-Optica, Milano, Italy). The slides were examined using an Olympus BX 52 light microscope, and images were taken with an Olympus DP50 digital camera system.
Mice were implanted subcutaneously with U251 cells and when the tumors reached 50-100 mm^3 treatments were initiated. Survival was evaluated by the Kaplan-Meier end-product analysis, where treatment failure (the experimental end points) was a loss of ˜20% body weight, or a tumor volume of >1 cm^3.

VEGF = VEGF immunohistochemistry in tumor and heart of xenograft mice; type: in vivo; settings: FIG. 4F
Method: (§1) The pro-angiogenic factors basic fibroblast growth factor (bFGF) and vascular endothelial growth factor (VEGF) are potent angiogenic stimulators. The expression of bFGF in the tumor and in the heart was evaluated by Western blot and qRT-PCR analyses and expression of VEGF by IHC.

HO-1 = HO-1 protein and mRNA in tumor and heart of xenograft mice (Western blot, qRT-PCR); type: in vivo; settings: heart
Method: (§2) Tumors and hearts of the mice were rapidly removed, frozen on dry ice and kept at −70° C. Tissue was then homogenized and RNA and proteins extracted using the NucleoSpin® RNA/Protein kit according to the manufacturer's protocol (Macherey-Nagel, GmbH & Co KG).
(§3) Total RNA ([…]) was primed by oligo dT and reverse-transcribed by Verso cDNA kit according to the manufacturer's protocol (Thermo Scientific). Analyses of qPCR were performed with Kapa Sybr® Fast (Kapa Biosystems) on a Step One Plus thermocycler (Applied Biosystems). The comparative threshold method was used to calculate the relative gene expression. Values were normalized against glyceraldehyde 3-phosphate dehydrogenase (GAPDH). Expression of the GAPDH mRNA in each individual sample was used to normalize the dataset. The sequences of the primers were as follows: […]
(§4) Protein levels in the samples were determined with the BCA protein assay kit (Pierce). The samples were subjected to Western blot analyses. The expression of proteins was visualized using their specified primary antibodies followed by the secondary IgG IRDye® 680DX antibody. Each detected band was quantified using the Odyssey Infrared Imaging System (LI-COR Biosciences) and normalized to the level of actin. The fold increase of a specific protein was determined by the ratio of the band intensity obtained from treated and untreated samples.
The effect of the drugs on the expression of genes associated with cell survival and death was examined by following changes in transcription and protein expression in tissue samples taken from the mice with glioblastoma xenografts. Heme oxygenase (HO-1) is known to play a protective role in the heart, whereas, in many cancers it is expressed and promotes growth and survival of neoplastic cells.

bFGF = bFGF protein and mRNA in tumor and heart of xenograft mice (Western blot, qRT-PCR); type: in vivo; settings: for expression of mouse bFGF protein in the heart: FIG. 4D; for expression of bFGF in tumors / bFGF mRNA in the tumor: tumor; for bFGF mRNA in the tumor: FIG. 6
Method: as §2, §3, §4, §1

c-Myc = c-Myc and p-c-Myc (Thr 58) Western blot in tumor and heart of xenograft mice; type: in vivo
Method: as §4
The c-Myc protein is an important regulator of normal cell physiology and in tumor cells it plays an important role in activating oncogenic pathways [Soucek & Evan, Curr Opin Genet Dev 2010, 20:91-95].

T47D cells = assay: Median-effect drug interaction, Hoechst viability, 72 h; type: cell-based, human; settings: for IC50: Homo sapiens
Method: (§5) The ratios of the drug combination were based on the ratio of their IC50 of each drug alone. Cell viability was determined by MTT assay, as described hereinabove. The drugs were added to the cells and incubated for 72 h.
(§6) Drug interaction in adherent cells was evaluated as above except that the viability was determined by Hoechst assay.

MDA-231 cells = assay: as above; type: cell-based, human; settings: for IC50: Homo sapiens
Method: as §5, §6

[2] = test system: NCI-N87 gastric carcinoma cells; assay: as above; type: cell-based, human; settings: Homo sapiens
Method: as §5, §6

MCP-1 = MCP-1 gene expression in MDA-MB-231 cells (qRT-PCR); type: cell-based, human; settings: single agent, FIG. 7C
Method: (§7) The effect of AN446 on inflammation-associated pathways was evaluated in the monocytic THP1 cell line and in the MDA-MB-231 breast carcinoma cell line. Supernatants of treated THP1 cells were collected and IL-6, IL-10 and TNF-α concentrations were quantified by ELISA (R&D systems). TLR4 expression in THP1 cells was assessed using fluorescent anti-TLR4 antibodies and FACS analysis. In addition, gene expression for MCP-1, TNF-α and TLR4 in MDA-MB-231 was evaluated by qRT-PCT, following treatment with AN446 and/or paclitaxel.

TNF-α = TNF-α gene expression in MDA-MB-231 cells (qRT-PCR); type: cell-based, human; settings: single agent, FIG. 7C
Method: as §7

TLR4 [3] = assay: TLR4 gene expression in MDA-MB-231 cells (qRT-PCR); type: cell-based, human; settings: single agent, FIG. 7C
Method: as §7

TLR4 [4] = settings: 24 hours, concentrations based on the IC50, FIG. 15
U251 cells = assay: Hoechst viability assay 72 h / median-effect combination study; settings: Homo sapiens, U-251, 72 h, read-out: IC50 value for viability in U251 cells after 72 hours
Method: Hoechst assay: 22RV-1, MCF-7, MCF-7DX, 4T1, U251, and T47D cells (3×10^3 cells/well) and NCI-N87 (8×10^3 cells/well) were seeded in tissue culture in growth medium for 24 h in 96-well plates (in triplicate) and then exposed to different concentrations (titration) of the tested drug for 72 h at 37° C. The plates were then rinsed with PBS and fixed with 100 ml of 70% ethanol for 30 min. […] The fluorescence was measured (excitation at 390 nm and emission at 460 nm) with a Synergy III Fluorometer-Elisa reader (BioTek Instruments, Inc. Germany).
The Median Effect Analysis (MEA) for a constant combination ratio was used for drugs interaction and the combination index (CI) determination.
The average values of three independent experiments were calculated and analyzed with CalcuSyn software.

## CCCC(=O)OCOP(=O)(OCC)OCC [AN7, butyroxymethyl diethylphosphate]
[1]; added to Dox 4 mg/kg ip once a week, day 25, FIG. 3A
  survival of mice when added to Dox treatment: 100%
[1]; added to Dox 4 mg/kg, FIG. 3B
  body weight loss when added to Dox treatment: significant attenuation of body weight loss
[1]; in combination with Dox, FIG. 3F
  Ki-67 positive (proliferating) cells in tumors: reduced the proliferating cells to a level significantly lower than any of the single drug treatments
[1]; in combination with Dox
  tumor volume of vehicle-treated group relative to treated group: 3 fold
[1]; single agent vs vehicle, FIGS. 3E, 3F
  Ki-67 positive cells in tumors: considerably more Ki-67 positive cells were detected in tumors of the vehicle-treated mice
[1]; single agent
  tumor volume of vehicle-treated group relative to treated group: 2 fold
[1]; single agent: AN446 25 mg/kg or AN7 50 mg/kg po thrice weekly, Dox 4 mg/kg ip once a week, FIG. 3A
  survival of mice until end of experiment (day 25): 100%
VEGF
  VEGF expression in the heart: elevated
HO-1; co-treatment with Dox
  HO-1 expression in the heart: increased the expression of this enzyme to a significantly higher level
  HO-1 mRNA in the heart, elevation of basal expression level: 1.76±0.36 fold
HO-1; single agent, FIGS. 4D, 4E
  HO-1 expression in the heart (decrease): did not significantly change
bFGF; co-treatment with Dox
  expression of mouse bFGF protein in the heart: significantly increased its expression to a level higher than that observed in naive or vehicle-treated mice
bFGF; single agent
  expression of mouse bFGF protein in the heart: unchanged
  bFGF mRNA in the tumor: significantly reduced the bFGF mRNA
bFGF; combination with Dox
  expression of bFGF in tumors: further diminished
bFGF; combined treatment with Dox
  bFGF mRNA in the tumor: suppressed it significantly further
bFGF; single agent, FIGS. 4A, 4B
  expression of bFGF in tumors: decreased significantly
c-Myc; heart, FIG. 5B
  c-Myc protein expression in the hearts: not affected
c-Myc; tumor, FIG. 5A
  c-Myc protein expression in tumors: decreased dramatically

## CC(=O)O[C@H]1C(=O)[C@@]2(C)[C@H]([C@H](OC(=O)c3ccccc3)[C@]3(O)C[C@H](OC(=O)[C@H](O)[C@@H](NC(=O)c4ccccc4)c4ccccc4)C(C)=C1C3(C)C)[C@]1(OC(C)=O)CO[C@@H]1C[C@@H]2O [Paclitaxel, paclitaxel]
T47D cells; paclitaxel in combination with AN446, read-out: Paclitaxel com IC50
  IC50: 0.0028 ± 0.0001 µM
T47D cells; paclitaxel in combination with SAHA, read-out: Paclitaxel com IC50
  IC50: 0.0023 ± 1e-05 µM
T47D cells; paclitaxel in combination with valproic acid, read-out: Paclitaxel com IC50
  IC50: 0.0036 ± 0.0001 µM
T47D cells; single agent, read-out: Paclitaxel IC50
  IC50: 0.0032 ± 0.0001 µM
MDA-231 cells; MDA-MB-231, MDA-231, paclitaxel in combination with AN446, read-out: Paclitaxel com IC50
  IC50: 0.0017 ± 1e-05 µM
MDA-231 cells; MDA-MB-231, MDA-231, paclitaxel in combination with SAHA, read-out: Paclitaxel com IC50
  IC50: 0.0015 µM
MDA-231 cells; MDA-MB-231, MDA-231, paclitaxel in combination with valproic acid, read-out: Paclitaxel com IC50
  IC50: 0.0016 ± 1e-05 µM
MDA-231 cells; MDA-MB-231, MDA-231, single agent, read-out: Paclitaxel IC50
  IC50: 0.0044 ± 0.0002 µM
[2]; NCI-N87, paclitaxel in combination with AN446, read-out: Paclitaxel com IC50
  IC50: 0.0018 ± 0.0002 µM
[2]; NCI-N87, single agent, read-out: Paclitaxel IC50
  IC50: 0.004 µM
MCP-1
  expression of MCP-1: paclitaxel-induced increase
TNF-α
  expression of TNF-α: paclitaxel-induced increase
TLR4 [3]
  expression of TLR4: paclitaxel-induced increase

## O=C(CCCCCCC(=O)Nc1ccccc1)NO [SAHA, suberanilohydroxamic acid]
T47D cells; in combination with Dox, read-out: com IC50
  IC50: 0.13 µM
TLR4 [4]
  TLR4 expression in MDA-231 cells: no apparent effect on TLR4 expression

## CCCC(CCC)C(=O)O [Valproic acid, valproic acid]
T47D cells
  CI (combination index with paclitaxel): 1.1
T47D cells; in combination with paclitaxel, read-out: com IC50
  IC50: 1800 ± 100 µM
T47D cells; single agent, Table 3, read-out: IC50
  IC50: 4400 ± 300 µM
MDA-231 cells; MDA-MB-231, MDA-231, in combination with paclitaxel, read-out: com IC50
  IC50: 1600 ± 10 µM
MDA-231 cells; MDA-MB-231, MDA-231, single agent, Table 3, read-out: IC50
  IC50: 3900 ± 200 µM
MDA-231 cells; MDA-231
  CI (combination index with paclitaxel): 0.8
U251 cells
  IC50: 3000 µM

## Nc1ccccc1NC(=O)c1ccc(CNC(=O)OCc2cccnc2)cc1 [entinostat]
U251 cells
  IC50: 2 µM
TLR4 [4]
  TLR4 expression in MDA-231 cells: no apparent effect on TLR4 expression

## C/C=C1\NC(=O)[C@H]2CSSCC/C=C/[C@H](CC(=O)N[C@H](C(C)C)C(=O)N2)OC(=O)[C@H](C(C)C)NC1=O [romidepsin]
U251 cells
  IC50: 0.001 µM
